Measured values taken from PubChem BioAssay (NCI).
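Values below derive from 48-hour exposures of cells grown in 96-well plates, with endpoints linearly interpolated between the two concentrations bracketing the appropriate inhibition level. TGI is the concentration that stops growth completely.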

Legend:
Assay in all cases: NCI-60 cell line screen, 48 h
786-0 renal = tested on: 786-0 renal
A498 renal = tested on: A498 renal
A549 NSCLC = tested on: A549 NSCLC
ACHN renal = tested on: ACHN renal
CAKI-1 renal = tested on: CAKI-1 renal
CCRF-CEM leukemia = tested on: CCRF-CEM leukemia
COLO 205 colon = tested on: COLO 205 colon
DLD-1 colon = tested on: DLD-1 colon
DMS 114 small cell lung = tested on: DMS 114 small cell lung
DMS 273 small cell lung = tested on: DMS 273 small cell lung
EKVX NSCLC = tested on: EKVX NSCLC
HCC-2998 colon = tested on: HCC-2998 colon
HCT-116 colon = tested on: HCT-116 colon
HCT-15 colon = tested on: HCT-15 colon
HL-60(TB) leukemia = tested on: HL-60(TB) leukemia
HOP-18 NSCLC = tested on: HOP-18 NSCLC
HOP-62 NSCLC = tested on: HOP-62 NSCLC
HOP-92 NSCLC = tested on: HOP-92 NSCLC
HT29 colon = tested on: HT29 colon
IGROV1 ovarian = tested on: IGROV1 ovarian
K-562 leukemia = tested on: K-562 leukemia
KM12 colon = tested on: KM12 colon
KM20L2 colon = tested on: KM20L2 colon
LOX IMVI melanoma = tested on: LOX IMVI melanoma
LXFL 529 NSCLC = tested on: LXFL 529 NSCLC
M14 melanoma = tested on: M14 melanoma
M19-MEL melanoma = tested on: M19-MEL melanoma
MALME-3M melanoma = tested on: MALME-3M melanoma
MOLT-4 leukemia = tested on: MOLT-4 leukemia
NCI-H226 lung = tested on: NCI-H226 lung
NCI-H23 lung = tested on: NCI-H23 lung
NCI-H460 lung = tested on: NCI-H460 lung
NCI-H522 lung = tested on: NCI-H522 lung
OVCAR-3 ovarian = tested on: OVCAR-3 ovarian
OVCAR-4 ovarian = tested on: OVCAR-4 ovarian
OVCAR-5 ovarian = tested on: OVCAR-5 ovarian
OVCAR-8 ovarian = tested on: OVCAR-8 ovarian
RXF 393 renal = tested on: RXF 393 renal
RXF-631 renal = tested on: RXF-631 renal
SF-268 CNS = tested on: SF-268 CNS
SF-295 CNS = tested on: SF-295 CNS
SF-539 CNS = tested on: SF-539 CNS
SK-MEL-2 melanoma = tested on: SK-MEL-2 melanoma
SK-MEL-28 melanoma = tested on: SK-MEL-28 melanoma
SK-MEL-5 melanoma = tested on: SK-MEL-5 melanoma
SK-OV-3 ovarian = tested on: SK-OV-3 ovarian
SN12C renal = tested on: SN12C renal
SNB-19 CNS = tested on: SNB-19 CNS
SNB-75 CNS = tested on: SNB-75 CNS
SNB-78 CNS = tested on: SNB-78 CNS
SR leukemia = tested on: SR leukemia
SW-620 colon = tested on: SW-620 colon
TK-10 renal = tested on: TK-10 renal
U251 CNS = tested on: U251 CNS
UACC-257 melanoma = tested on: UACC-257 melanoma
UACC-62 melanoma = tested on: UACC-62 melanoma
UO-31 renal = tested on: UO-31 renal

Measured: TGI

C=CCN1C(=O)C/C(=C2/CCC(=O)N2CC=C)C1=O
> 100 µM: all assays above
